Common to all, as to assay type: in vivo
One data set has as its system Veronica persica. Briefly: Test Example 5: herbicidal effect by foliage application, plastic box (symbol R). Conditions: 320 g/ha, 3 weeks after application. Put shortly: (§1)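 Leaf-applied emulsion, water-diluted to a preset herbicide dose, on two-week-old seedlings raised in a 25° C. to 30° C. greenhouse; injury rated at 3 weeks using earlier criteria.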
Data set [1] has as its system Echinochloa oryzacola Vasing. Description: Test Example 1: herbicidal activity, application before weed generation in submerged conditions (symbol A). The note with it: application herbicide amount 320 g/ha. Put shortly: (§2)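 Weed control was rated three weeks after treatment on a 0–5 scale, from 5% or lower up to 90% or more. Pre-emergence water-surface application of diluted emulsion at a predetermined rate was made on the day of sowing, in flooded (4 cm water) pots containing rice seedlings, kept at 25–30 °C under glass.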

The next data set concerns Monochoria vaginalis. Briefly: Test Example 1: herbicidal activity, application before weed generation in submerged conditions (symbol C). The note with it: application herbicide amount 320 g/ha. In a few lines:
as §2

In another data set the test system is beet. Briefly: Test Example 5: effect on crop by foliage application, plastic box (symbol f). The note with it: 320 g/ha, 3 weeks after application. Put shortly: (§3)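 Crop and weed seeds sown in spots in sterilized diluvial soil in plastic boxes and covered with about 1.5 cm soil. Plants raised in a greenhouse at 25° C. to 30° C. for foliar application.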
The subject of the next data set is Lolium multiflorum Lam. Description: Test Example 5: herbicidal effect by foliage application, plastic box (symbol K). Conditions: 320 g/ha, 3 weeks after application. Put shortly:
as §1

Data set [2] relates to Echinochloa oryzacola Vasing. Description: Test Example 2: herbicidal activity, application during weed generation in submerged conditions (symbol A). The note with it: Table 23; application herbicide amount 320 g/ha; grade 0-5 by criteria of Test Example 1. In a few lines:
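Seeds sown in flooded alluvial soil (4 cm water) were grown in a 25-30° C greenhouse. At the one- to two-leaf stage, diluted emulsion of compound was applied to the water surface at a predetermined rate. Effect was scored 3 weeks later.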

For a further data set, the system named is Avena fatua. Briefly: Test Example 5: herbicidal effect by foliage application, plastic box (symbol I). Conditions: 320 g/ha, 3 weeks after application. Put shortly: as §1
The subject of the next data set is rapeseed. Description: Test Example 5: effect on crop by foliage application, plastic box (symbol g). The note with it: 320 g/ha, 3 weeks after application. In a few lines:
as §3

Another data set concerns corn. Description: Test Example 5: effect on crop by foliage application, plastic box (symbol c). The note with it: 320 g/ha, 3 weeks after application. Put shortly:
as §3

Another data set relates to Digitaria ciliaris. Briefly: Test Example 4: herbicidal effect by soil treatment (symbol F). The note with it: application herbicide amount 320 g/ha. In a few lines: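 Seeds were sown in sterilized diluvial soil, covered with about 1.5 cm of soil, and the soil surface was sprayed with a water-diluted emulsion of the compound at a predetermined rate. Plants grew in a greenhouse at 25° C. to 30° C.; effects were scored visually 3 weeks after application.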

The values that follow come from US11000033B2, “Ketone or oxime compound, and herbicide” (NISSAN CHEMICAL CORPORATION, priority 2014, dated 2021).

`CON=C(C)CC1CC(OC(=O)C2CC2)=C(c2c(C)cc(C)cc2C)C1=O` (stereo not shown) [1-015]: the “R: Veronica persica, herbicidal effect grade” value (shortened to “R: Veronica persica”) in the data set on Veronica persica was 4 (Herbicidal ratio of 70% or higher and lower than 90%). For the same molecule, the “Herbicidal effect grade, A: Echinochloa oryzacola Vasing.” value in [1] and in data set [2] was 5 (Herbicidal ratio of 90% or more (almost completely withered)) throughout. Besides, the “Herbicidal effect grade, C: Monochoria vaginalis” value (shortened to “Herbicidal effect grade, C”) in the data set with Monochoria vaginalis is 2 (Herbicidal ratio of 20% or higher and lower than 40%). Moreover, in the data set with beet, the “f: beet, effect on crop grade” value was 3 (Herbicidal ratio of 40% or higher and lower than 70%). Also, in the data set with Lolium multiflorum Lam., the “K: Lolium multiflorum Lam., herbicidal effect grade” value was 5 (Herbicidal ratio of 90% or more (almost completely withered)). Besides, in the data set with Avena fatua, the “I: Avena fatua, herbicidal effect grade” value is 5 (Herbicidal ratio of 90% or more (almost completely withered)). Also, the “g: rapeseed, effect on crop grade” value with rapeseed was 4 (Herbicidal ratio of 70% or higher and lower than 90%). Further, in the data set with corn, the “c: corn, effect on crop grade” value was 5 (Herbicidal ratio of 90% or more (almost completely withered)). Further, the “F (Digitaria ciliaris) herbicidal effect grade” value in the data set with Digitaria ciliaris is listed as 5 (Herbicidal ratio of 90% or more (almost completely withered)).

In the case of `CON=C(C)CC1CC(OC(=O)C(C)(C)CCl)=C(c2c(C)cc(C)cc2C)C1=O` (stereo not shown) [1-016], the “R: Veronica persica” value in the data set on Veronica persica was 4 (Herbicidal ratio of 70% or higher and lower than 90%). In addition, the “Herbicidal effect grade, A: Echinochloa oryzacola Vasing.” value in data set [1] and in data set [2] was 5 (Herbicidal ratio of 90% or more (almost completely withered)) in each case. For the same molecule, in the data set on Monochoria vaginalis, the “Herbicidal effect grade, C” value was 4 (Herbicidal ratio of 70% or higher and lower than 90%). Further, in the data set on beet, the “f: beet, effect on crop grade” value is 3 (Herbicidal ratio of 40% or higher and lower than 70%). For the same molecule, in the data set with Lolium multiflorum Lam., the “K: Lolium multiflorum Lam., herbicidal effect grade” value is listed as 5 (Herbicidal ratio of 90% or more (almost completely withered)). Further, the “I: Avena fatua, herbicidal effect grade” value with Avena fatua was 5 (Herbicidal ratio of 90% or more (almost completely withered)). Further, the “g: rapeseed, effect on crop grade” value in the data set with rapeseed was 4 (Herbicidal ratio of 70% or higher and lower than 90%). Moreover, the “c: corn, effect on crop grade” value in the data set on corn is 4 (Herbicidal ratio of 70% or higher and lower than 90%). Besides, in the data set on Digitaria ciliaris, the “F (Digitaria ciliaris) herbicidal effect grade” value is on record as 5 (Herbicidal ratio of 90% or more (almost completely withered)).

In the case of `CON=C(C)CC1CC(OC(=O)C(C)(C)Oc2ccccc2)=C(c2c(C)cc(C)cc2C)C1=O` (stereo not shown) [1-017], the “R: Veronica persica” value in the data set with Veronica persica was 3 (Herbicidal ratio of 40% or higher and lower than 70%). In addition, the “Herbicidal effect grade, A: Echinochloa oryzacola Vasing.” value in [1] and in [2] was 5 (Herbicidal ratio of 90% or more (almost completely withered)) in each case. Also, in the data set on Monochoria vaginalis, the “Herbicidal effect grade, C” value is 2 (Herbicidal ratio of 20% or higher and lower than 40%). The “f: beet, effect on crop grade” value in the data set on beet is 2 (Herbicidal ratio of 20% or higher and lower than 40%). In addition, in the data set with Lolium multiflorum Lam., the “K: Lolium multiflorum Lam., herbicidal effect grade” value is 5 (Herbicidal ratio of 90% or more (almost completely withered)). In addition, the “I: Avena fatua, herbicidal effect grade” value with Avena fatua was 5 (Herbicidal ratio of 90% or more (almost completely withered)). For the same molecule, the “g: rapeseed, effect on crop grade” value in the data set on rapeseed was 4 (Herbicidal ratio of 70% or higher and lower than 90%). Also, in the data set on corn, the “c: corn, effect on crop grade” value is 4 (Herbicidal ratio of 70% or higher and lower than 90%). In addition, in the data set with Digitaria ciliaris, the “F (Digitaria ciliaris) herbicidal effect grade” value was 5 (Herbicidal ratio of 90% or more (almost completely withered)).

On to `C=CCON=C(C)CC1CC(O)=C(c2c(C)cc(C)cc2C)C1=O` (stereo not shown) [1-018], for which the “R: Veronica persica” value in the data set with Veronica persica is 4 (Herbicidal ratio of 70% or higher and lower than 90%). Also, the “Herbicidal effect grade, A: Echinochloa oryzacola Vasing.” value in [1] and in data set [2] was 5 (Herbicidal ratio of 90% or more (almost completely withered)) in each case. Further, the “Herbicidal effect grade, C” value in the data set on Monochoria vaginalis was 2 (Herbicidal ratio of 20% or higher and lower than 40%). For the same molecule, the “f: beet, effect on crop grade” value in the data set on beet was 4 (Herbicidal ratio of 70% or higher and lower than 90%). For the same molecule, the “K: Lolium multiflorum Lam., herbicidal effect grade” value in the data set with Lolium multiflorum Lam. is reported as 5 (Herbicidal ratio of 90% or more (almost completely withered)). Also, the “I: Avena fatua, herbicidal effect grade” value in the data set with Avena fatua was 5 (Herbicidal ratio of 90% or more (almost completely withered)). For the same molecule, the “g: rapeseed, effect on crop grade” value in the data set with rapeseed was 4 (Herbicidal ratio of 70% or higher and lower than 90%). Also, the “c: corn, effect on crop grade” value in the data set on corn was 5 (Herbicidal ratio of 90% or more (almost completely withered)). In addition, the “F (Digitaria ciliaris) herbicidal effect grade” value in the data set on Digitaria ciliaris is 5 (Herbicidal ratio of 90% or more (almost completely withered)).

For `C#CCON=C(C)CC1CC(O)=C(c2c(C)cc(C)cc2C)C1=O` (stereo not shown) [1-019], the “R: Veronica persica” value with Veronica persica is 4 (Herbicidal ratio of 70% or higher and lower than 90%). Further, the “Herbicidal effect grade, A: Echinochloa oryzacola Vasing.” value in [1] and in data set [2] was 5 (Herbicidal ratio of 90% or more (almost completely withered)) throughout. In the data set on Monochoria vaginalis, the “Herbicidal effect grade, C” value is 2 (Herbicidal ratio of 20% or higher and lower than 40%). For the same molecule, the “f: beet, effect on crop grade” value in the data set with beet is 4 (Herbicidal ratio of 70% or higher and lower than 90%). Moreover, in the data set on Lolium multiflorum Lam., the “K: Lolium multiflorum Lam., herbicidal effect grade” value is on record as 5 (Herbicidal ratio of 90% or more (almost completely withered)). In the data set with Avena fatua, the “I: Avena fatua, herbicidal effect grade” value is reported as 5 (Herbicidal ratio of 90% or more (almost completely withered)). For the same molecule, in the data set with rapeseed, the “g: rapeseed, effect on crop grade” value was 4 (Herbicidal ratio of 70% or higher and lower than 90%). Also, the “c: corn, effect on crop grade” value in the data set on corn was 5 (Herbicidal ratio of 90% or more (almost completely withered)). In addition, the “F (Digitaria ciliaris) herbicidal effect grade” value in the data set with Digitaria ciliaris is 5 (Herbicidal ratio of 90% or more (almost completely withered)).

On to `CC(CC1CC(O)=C(c2c(C)cc(C)cc2C)C1=O)=NOCc1ccccc1` (stereo not shown) [1-020], for which, in the data set on Veronica persica, the “R: Veronica persica” value was 4 (Herbicidal ratio of 70% or higher and lower than 90%). In addition, the “Herbicidal effect grade, A: Echinochloa oryzacola Vasing.” value in data set [1] and in [2] was 5 (Herbicidal ratio of 90% or more (almost completely withered)) each time. The “Herbicidal effect grade, C” value in the data set with Monochoria vaginalis was 4 (Herbicidal ratio of 70% or higher and lower than 90%). Besides, the “f: beet, effect on crop grade” value in the data set on beet is 3 (Herbicidal ratio of 40% or higher and lower than 70%). The “K: Lolium multiflorum Lam., herbicidal effect grade” value in the data set on Lolium multiflorum Lam. is reported as 5 (Herbicidal ratio of 90% or more (almost completely withered)). Moreover, the “I: Avena fatua, herbicidal effect grade” value with Avena fatua is 4 (Herbicidal ratio of 70% or higher and lower than 90%). Further, in the data set on rapeseed, the “g: rapeseed, effect on crop grade” value is 4 (Herbicidal ratio of 70% or higher and lower than 90%). Also, in the data set with corn, the “c: corn, effect on crop grade” value is 1 (Herbicidal ratio of 5% or higher and lower than 20%). Also, the “F (Digitaria ciliaris) herbicidal effect grade” value in the data set with Digitaria ciliaris is 5 (Herbicidal ratio of 90% or more (almost completely withered)).

As to `CON=C(C)C(C(C)=NOC)C1CC(O)=C(c2c(C)cc(C)cc2C)C1=O` (stereo not shown) [1-021], the “R: Veronica persica” value with Veronica persica is given as 0 (Herbicidal ratio of 5% or lower (almost no effect)). Further, the “Herbicidal effect grade, A: Echinochloa oryzacola Vasing.” value in data set [1] and in data set [2] was 0 (Herbicidal ratio of 5% or lower (almost no effect)) throughout. The “Herbicidal effect grade, C” value in the data set on Monochoria vaginalis was 0 (Herbicidal ratio of 5% or lower (almost no effect)). In addition, the “f: beet, effect on crop grade” value in the data set with beet was 0 (Herbicidal ratio of 5% or lower (almost no effect)). The “K: Lolium multiflorum Lam., herbicidal effect grade” value with Lolium multiflorum Lam. is 4 (Herbicidal ratio of 70% or higher and lower than 90%). Also, the “I: Avena fatua, herbicidal effect grade” value in the data set on Avena fatua is 0 (Herbicidal ratio of 5% or lower (almost no effect)). Further, the “g: rapeseed, effect on crop grade” value with rapeseed was 2 (Herbicidal ratio of 20% or higher and lower than 40%). For the same molecule, the “c: corn, effect on crop grade” value in the data set with corn is 0 (Herbicidal ratio of 5% or lower (almost no effect)). Besides, in the data set with Digitaria ciliaris, the “F (Digitaria ciliaris) herbicidal effect grade” value is given as 0 (Herbicidal ratio of 5% or lower (almost no effect)).
